Assay results published in ChEMBL document CHEMBL1201862, “PubChem BioAssay data set” (2004).
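Cultured in 96-well plates, cells were exposed to test compound for 48 hours across five concentrations. GI50 = concentration required for 50% inhibition of growth.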 Activity calls are given as the source filed them. Rule as the data show it: active = GI50 up to about 1.1 µM and inactive = higher.

Columns and labels:
Experiment in all cases: growth of human tumour cells (NCI), 48 h
HT-29 = system: HT-29
HCC 2998 = system: HCC 2998
CCRF-CEM = system: CCRF-CEM
MCF7 = system: MCF7
SNB-19 = system: SNB-19
RXF 393 = system: RXF 393
OVCAR-5 = system: OVCAR-5
CAKI-1 = system: CAKI-1
NCI-H460 = system: NCI-H460
SW-620 = system: SW-620
ACHN = system: ACHN
UO-31 = system: UO-31
MOLT-4 = system: MOLT-4
NCI-H23 = system: NCI-H23
DU-145 = system: DU-145
OVCAR-3 = system: OVCAR-3
OVCAR-4 = system: OVCAR-4
K562 = system: K562
SR = system: SR

Row | Compound | GI50 (HT-29) | GI50 (HCC 2998) | GI50 (CCRF-CEM) | GI50 (MCF7) | GI50 (SNB-19) | GI50 (RXF 393) | GI50 (OVCAR-5) | GI50 (CAKI-1) | GI50 (NCI-H460) | GI50 (SW-620) | GI50 (ACHN) | GI50 (UO-31) | GI50 (MOLT-4) | GI50 (NCI-H23) | GI50 (DU-145) | GI50 (OVCAR-3) | GI50 (OVCAR-4) | GI50 (K562) | GI50 (SR)
1 | CC1=C(C(=O)OC(C)(C)C)C(c2ccc([N+](=O)[O-])cc2)C(C(=O)OC(C)(C)C)=C(C)N1 | 19.8 µM (inactive) | 13.2 µM (inactive) | 0.187 µM (active) | 16.6 µM (inactive) | 34.4 µM (inactive) | 19.3 µM (inactive) | 19.1 µM (inactive) | 28.9 µM (inactive) | 22.2 µM (inactive) | 26.9 µM (inactive) | 21.4 µM (inactive) | 19.4 µM (inactive) | 16.9 µM (inactive) | 19.6 µM (inactive) | 26.9 µM (inactive) | 20.1 µM (inactive) | 20.7 µM (inactive) | 25.4 µM (inactive) | –
2 | Cn1c(=O)c2nc(CCCCc3nc4c(=O)n(C)c(=S)n(C)c4[nH]3)[nH]c2n(C)c1=S | > 100 µM (inactive) | – | > 100 µM (inactive) | > 100 µM (inactive) | 76.6 µM (inactive) | > 100 µM (inactive) | > 100 µM (inactive) | > 100 µM (inactive) | > 100 µM (inactive) | > 100 µM (inactive) | > 100 µM (inactive) | > 100 µM (inactive) | – | > 100 µM (inactive) | > 100 µM (inactive) | > 100 µM (inactive) | > 100 µM (inactive) | > 100 µM (inactive) | > 100 µM (inactive)
3 | N=C(N)C(/N=N\c1ccccc1)C(=N)N (centres undefined) | 29.8 µM (inactive) | 16.5 µM (inactive) | 13.5 µM (inactive) | 25.6 µM (inactive) | 53.7 µM (inactive) | > 100 µM (inactive) | 49.7 µM (inactive) | 38.4 µM (inactive) | 32.1 µM (inactive) | 34.4 µM (inactive) | 64.9 µM (inactive) | 30.5 µM (inactive) | 30.5 µM (inactive) | 50.4 µM (inactive) | > 100 µM (inactive) | 38.5 µM (inactive) | 42.4 µM (inactive) | 23.7 µM (inactive) | –
4 | C=CCN(CC=C)Cn1c(=S)sc2ccccc21 | – | > 100 µM (inactive) | 22.2 µM (inactive) | > 100 µM (inactive) | > 100 µM (inactive) | > 100 µM (inactive) | > 100 µM (inactive) | 15.3 µM (inactive) | 82.8 µM (inactive) | 48.8 µM (inactive) | > 100 µM (inactive) | 38.8 µM (inactive) | 94.8 µM (inactive) | > 100 µM (inactive) | > 100 µM (inactive) | > 100 µM (inactive) | 86.3 µM (inactive) | – | –
5 | CCOc1ccc(NC(=O)/C(=N\N)C(C(=O)OC)c2nc3ccc(Cl)cc3nc2O)cc1 (centres undefined) | > 100 µM (inactive) | > 100 µM (inactive) | > 100 µM (inactive) | > 100 µM (inactive) | – | > 100 µM (inactive) | > 100 µM (inactive) | > 100 µM (inactive) | > 100 µM (inactive) | > 100 µM (inactive) | 45 µM (inactive) | 72.3 µM (inactive) | – | > 100 µM (inactive) | – | > 100 µM (inactive) | > 100 µM (inactive) | – | 21.7 µM (inactive)
6 | COc1ccc(N2C(=O)C(=O)N(c3ccc(/N=N\c4ccccc4)cc3)C2=S)cc1 | 18.6 µM (inactive) | 16.4 µM (inactive) | 35.1 µM (inactive) | – | 21.9 µM (inactive) | 17.3 µM (inactive) | 21.1 µM (inactive) | 20.2 µM (inactive) | 18.3 µM (inactive) | 18.7 µM (inactive) | 19 µM (inactive) | 16.3 µM (inactive) | 32.9 µM (inactive) | 18.5 µM (inactive) | 16 µM (inactive) | – | 18.2 µM (inactive) | 37.5 µM (inactive) | 38 µM (inactive)
7 | Cc1ccc(S(=O)(=O)NC(=O)Nc2ccc(S(N)(=O)=O)cc2S(N)(=O)=O)cc1 | > 100 µM (inactive) | – | > 100 µM (inactive) | > 100 µM (inactive) | > 100 µM (inactive) | > 100 µM (inactive) | > 100 µM (inactive) | > 100 µM (inactive) | – | > 100 µM (inactive) | – | > 100 µM (inactive) | > 100 µM (inactive) | > 100 µM (inactive) | > 100 µM (inactive) | > 100 µM (inactive) | > 100 µM (inactive) | > 100 µM (inactive) | –
8 | O=c1[nH]n(Cc2ccccc2Cl)c2ccc([N+](=O)[O-])cc12 | 72.9 µM (inactive) | 50.1 µM (inactive) | 45.2 µM (inactive) | – | 80 µM (inactive) | 23.3 µM (inactive) | > 100 µM (inactive) | > 100 µM (inactive) | 35.6 µM (inactive) | 53.7 µM (inactive) | 33.3 µM (inactive) | 34.3 µM (inactive) | 35.8 µM (inactive) | 49.8 µM (inactive) | > 100 µM (inactive) | 35.9 µM (inactive) | 78.9 µM (inactive) | 29 µM (inactive) | 29.2 µM (inactive)
